Test results reported in patent US11571403B2, “Methods for the treatment of non-alcoholic steatohepatitis” (Eiger Biopharmaceuticals, Inc., priority 2016, dated 2023).

Assays:
[1] = system: STAM mouse model for NASH; assay: Biochemistry: plasma ALT and liver triglyceride, STAM mouse NASH model (Example 1); type: in vivo; conditions: 7 to 9 weeks of age
From the text: (§1) The STAM™ mouse is a model for NASH created by a combination of chemical and dietary interventions in C57BL/6 mice that manifest NASH at about 8 weeks, which progresses to fibrosis at about 12 weeks and then progresses to HCC at about 16 weeks. See, Saito et al., Sci. Rep. 2015, 5:12466.
(§2) In the study, the control groups were as follows: (i) Untreated Disease Control—a group of STAM mice injected with streptozotocin (STZ, Sigma-Aldrich, USA) at 2 days old, and fed a high fat diet (HFD, 57 kcal % fat, Cat #HFD32, CLEA Japan, Japan) starting at 4 weeks old; and (ii) Positive Control—a group of STAM mice treated with telmisartan (10 mg/kg QD from 7 to 9 weeks). In addition to these control groups, test groups of STAM mice treated with a low dose of ubenimex (5 mg/kg ubenimex BID from 7 to 9 weeks) or a high dose of ubenimex (25 mg/kg BID from 7 to 9 weeks), were included in the study. The low dose is equivalent to a human dose of 30 mg BID. The high dose is equivalent to a human dose of 150 mg BID. The viability, clinical signs and behavior were monitored daily, including body weight, signs of toxicity, moribundity and mortality. The mice were maintained in a SPF facility under controlled conditions of temperature (23±2° C.), humidity (45±10%), lighting (12-hour artificial light and dark cycles; light from 8:00 to 20:00) and air exchange. A high pressure was maintained in the experimental room to prevent contamination of the facility. The mice were housed in TPX cages (CLEA Japan) with a maximum of 4 mice per case.
(§3) All groups of mice were sacrificed at 9 weeks. Once sacrificed, the body weight of each mouse was recorded. The liver of each mouse was removed and weighed. The liver-to-body weight ratio was determined for each mouse. Blood serum levels of CK-18, ALT, and liver triglycerides were determined for each mouse. The livers were then sectioned and stained with hematoxylin and eosin (“HE”) stain, as well as Sirius red staining, to determine liver steatosis (ballooning) and fibrosis, respectively.

[2] = system: STAM model of NASH fibrosis; assay: Fibrosis area by Sirius red staining, STAM model of NASH with fibrosis (Example 3); type: in vivo, mouse
Protocol: Ubenimex or telmisartan was administered orally in a volume at 10 mL/kg. Ubenimex was administered at a dose of 5 mg/kg once daily or twice daily. Telmisartan was administered at a dose of 5 mg/kg once daily. For HE staining, sections were cut from paraffin blocks of liver tissue prefixed in Bouin's solution and stained with Lillie-Mayer's hematoxylin (Muto Pure Chemicals Co., Ltd., Japan) and eosin solution (Wako Pure Chemical Industries, Ltd., Japan). NAFLD Activity Score (NAS) was calculated according to the criteria of Kleiner (Kleiner et al., Hepatology, 2005, 41:1313). To visualize collagen deposition, Bouin's fixed liver sections were stained using picro-Sirius red solution (Waldeck, Germany). For quantitative analysis of fibrosis area, bright field images of Sirius red-staining sections were captured around the central vein using a digital camera (DFC295; Leica, Germany) at 200-fold magnification, and the positive areas in 5 fields/section were measured using ImageJ software (National Institutes of Health, USA). Study groups: The following study groups were used. Group 1 (Vehicle): 8 NASH mice were orally administered vehicle (RO water) in a volume of 10 mL/kg twice daily from 6 to 11 weeks of age. Group 2 (Ubenimex QD for 5 weeks): 8 NASH mice were orally administered vehicle supplemented with ubenimex at a dose of 5 mg/kg once daily from 6 to 11 weeks of age. Group 3 (Ubenimex BID for 5 weeks): 8 NASH mice were orally administered vehicle supplemented with ubenimex at a dose of 5 mg/kg twice daily from 6 to 11 weeks of age. Group 4 (Ubenimex BID for 2 weeks): 8 NASH mice were orally administered vehicle supplemented with ubenimex at a dose of 5 mg/kg twice daily from 9 to 11 weeks of age. Group 5 (Telmisartan for 5 weeks): 8 NASH mice were orally administered pure water supplemented with telmisartan at a dose of 5 mg/kg once daily from 6 to 11 weeks of age.

[3] = system: STAM model of NASH fibrosis; assay: Biochemistry: plasma ALT and liver triglyceride, STAM model of NASH with fibrosis (Example 3); type: in vivo, mouse
Protocol: Ubenimex or telmisartan was administered orally in a volume at 10 mL/kg. Ubenimex was administered at a dose of 5 mg/kg once daily or twice daily. Telmisartan was administered at a dose of 5 mg/kg once daily.
For plasma biochemistry, blood was collected in polypropylene tubes with anticoagulant (Novo-Heparin, Mochida Pharmaceutical Co. Ltd., Japan) and centrifuged at 1,000×g for 15 minutes at 4° C. The supernatant was collected and stored at −80° C. until use. Plasma ALT level was measured by FUJI DRI-CHEM 7000 (Fujifilm, Japan).
Liver total lipid-extracts were obtained by Folch's method (Folch et al., J. Biol Chem, 1957, 226:497). Liver samples were homogenized in chloroform-methanol (2:1 v/v) and incubated overnight at room temperature. After washing with chloroform-methanol-water (8:4:3 v/v/v), the extracts were evaporated to dryness and dissolved in isopropanol. Liver triglyceride content was measured by Triglyceride E-test (Wako Pure Chemical Industries, Ltd., Japan).
Study groups: The following study groups were used. Group 1 (Vehicle): 8 NASH mice were orally administered vehicle (RO water) in a volume of 10 mL/kg twice daily from 6 to 11 weeks of age. Group 2 (Ubenimex QD for 5 weeks): 8 NASH mice were orally administered vehicle supplemented with ubenimex at a dose of 5 mg/kg once daily from 6 to 11 weeks of age. Group 3 (Ubenimex BID for 5 weeks): 8 NASH mice were orally administered vehicle supplemented with ubenimex at a dose of 5 mg/kg twice daily from 6 to 11 weeks of age. Group 4 (Ubenimex BID for 2 weeks): 8 NASH mice were orally administered vehicle supplemented with ubenimex at a dose of 5 mg/kg twice daily from 9 to 11 weeks of age. Group 5 (Telmisartan for 5 weeks): 8 NASH mice were orally administered pure water supplemented with telmisartan at a dose of 5 mg/kg once daily from 6 to 11 weeks of age.

[4] = system: STAM mouse model for NASH; assay: Fibrosis area by Sirius red staining, STAM mouse NASH model (Example 1); type: in vivo; conditions: 7 to 9 weeks of age
From the text: as §1, §2, §3

[5] = system: STAM mouse model for NASH; assay: Plasma CK-18, STAM mouse NASH model (Example 1); type: in vivo
From the text: as §1, §2, §3

[6] = ubenimex 5 mg/kg BID oral, 6 to 11 weeks of age
[7] = ubenimex 5 mg/kg BID oral, 9 to 11 weeks of age
[8] = ubenimex 5 mg/kg QD oral, 6 to 11 weeks of age
[9] = telmisartan 5 mg/kg QD oral, 6 to 11 weeks of age

CC(C)C[C@H](NC(=O)[C@@H](O)[C@H](N)Cc1ccccc1)C(=O)O [Ubenimex, (2S)-2-[[(2S,3R)-3-amino-2-hydroxy-4-phenylbutanoyl]amino]-4-methylpentanoic acid]
Liver triglyercide (mean ± SD) ([1]; ubenimex 5 mg/kg BID): 50.0 ± 22.7 mg/g liver | Plasma ALT (mean ± SD) ([1]; ubenimex 5 mg/kg BID): 59 ± 22 U/L | Liver triglyercide (mean ± SD) ([1]; ubenimex 25 mg/kg BID): 34.8 ± 22.2 mg/g liver | Plasma ALT (mean ± SD) ([1]; ubenimex 25 mg/kg BID): 62 ± 11 U/L | Sirius red-positive area (fibrosis area, mean ± SD) [2, 6]: 0.88 ± 0.22% | Sirius red-positive area (fibrosis area, mean ± SD) [2, 7]: 0.87 ± 0.14% | Sirius red-positive area (fibrosis area, mean ± SD) [2, 8]: 0.75 ± 0.16% | Liver triglyceride (mean ± SD) [3, 6]: 59.6 ± 21.4 mg/g liver | Plasma ALT (mean ± SD) [3, 6]: 52 ± 21 U/L | Liver triglyceride (mean ± SD) [3, 7]: 62.0 ± 33.5 mg/g liver | Plasma ALT (mean ± SD) [3, 7]: 47 ± 24 U/L | Liver triglyceride (mean ± SD) [3, 8]: 58.6 ± 24.4 mg/g liver | Plasma ALT (mean ± SD) [3, 8]: 85 ± 64 U/L | Sirius red-positive area (fibrosis area, mean ± SD) ([4]; ubenimex 5 mg/kg BID): 0.80 ± 0.16% | Sirius red-positive area (fibrosis area, mean ± SD) ([4]; ubenimex 25 mg/kg BID): 1.05 ± 0.14% | Plasma CK-18 ([5]; high dose ubenimex group (25 mg/kg BID, 7 to 9 weeks)): 230.8±28.6 mIU/mL | Plasma CK-18 ([5]; low dose ubenimex group (5 mg/kg BID, 7 to 9 weeks)): 238.5±7.7 mIU/mL

CCCc1nc2c(C)cc(-c3nc4ccccc4n3C)cc2n1Cc1ccc(-c2ccccc2C(=O)O)cc1 [Telmisartan, telmisartan]
Liver triglyercide (mean ± SD) ([1]; telmisartan 10 mg/kg QD): 22.4 ± 7.5 mg/g liver | Plasma ALT (mean ± SD) ([1]; telmisartan 10 mg/kg QD): 44 ± 13 U/L | Sirius red-positive area (fibrosis area, mean ± SD) [2, 9]: 0.57 ± 0.14% | Liver triglyceride (mean ± SD) [3, 9]: 24.6 ± 8.4 mg/g liver | Plasma ALT (mean ± SD) [3, 9]: 36 ± 11 U/L | Sirius red-positive area (fibrosis area, mean ± SD) ([4]; telmisartan 10 mg/kg QD): 0.71 ± 0.15% | Plasma CK-18 ([5]; telmisartan group (10 mg/kg QD, 7 to 9 weeks)): 284.5±38.4 mIU/mL
